Data on 5 compounds can be found in ChEMBL document CHEMBL5104172, “Design, synthesis, and antibacterial activity of derivatives of Tryptophanyl-tRNA synthetase inhibitor indolmycin” (Eur J Med Chem, 2022).

≈ marks a conversion by molar mass, not a printed value.

Data set [1] deals with Staphylococcus aureus. The data set can be described thus: Antibacterial activity against methicillin-resistant Staphylococcus aureus MRSA17-5 measured by liquid dilution method. It is filed as functional.
The test system of data set [2] is Staphylococcus epidermidis. The data set can be described thus: Antibacterial activity against methicillin-sensitive Staphylococcus epidermidis MSSE17-3 measured by liquid dilution method. It is filed as functional.
Data set [3] deals with Staphylococcus epidermidis. The experiment in a line: Antibacterial activity against methicillin-resistant Staphylococcus epidermidis MRSE17-3 measured by liquid dilution method. It is filed as functional.
For data set [4], the system named is Staphylococcus aureus. The data set can be described thus: Antibacterial activity against methicillin-resistant Staphylococcus aureus MRSA17-3 measured by liquid dilution method. It is filed as functional.
In data set [5] the test system is Staphylococcus epidermidis. The data set can be described thus: Antibacterial activity against methicillin-resistant Staphylococcus epidermidis MRSE17-2 measured by liquid dilution method. It is filed as functional.
In data set [6] the test system is Enterococcus faecalis. The experiment in a line: Antibacterial activity against Enterococcus faecalis ATCC 29212 measured by liquid dilution method. It is filed as functional.
The test system of data set [7] is Staphylococcus aureus. The data set can be described thus: Antibacterial activity against methicillin-resistant Staphylococcus aureus MRSA17-2 measured by liquid dilution method. It is filed as functional.
Data set [8] has as its system Staphylococcus aureus. The data set can be described thus: Antibacterial activity against methicillin-resistant Staphylococcus aureus MRSA17-6 measured by liquid dilution method. It is filed as functional.
The subject of data set [9] is Staphylococcus epidermidis. The experiment in a line: Antibacterial activity against methicillin-sensitive Staphylococcus epidermidis MSSE17-1 measured by liquid dilution method. The class given is functional.
Data set [10] deals with Enterococcus faecium. The experiment in a line: Antibacterial activity against Enterococcus faecium EFM17-2 measured by liquid dilution method. It is filed as functional.
Data set [11] concerns Staphylococcus epidermidis. The data set can be described thus: Antibacterial activity against methicillin-resistant Staphylococcus epidermidis MRSE17-6 measured by liquid dilution method. It is filed as functional.
A short description of data set [12]: Plasma protein binding in CD-1 mouse plasma incubated for 4 hrs and assessed as unbound fraction at 2 uM measured by LC/MS/MS analysis. It is filed as ADME, cell-free.
Data set [13] relates to Staphylococcus aureus. The data set can be described thus: Antibacterial activity against vancomycin-intermediate Staphylococcus aureus ATCC 700699 measured by liquid dilution method. It is filed as functional.
Data set [14] has as its system Enterococcus faecalis. The data set can be described thus: Antibacterial activity against Enterococcus faecalis EFA17-1 measured by liquid dilution method. It is filed as functional.
The subject of data set [15] is Staphylococcus epidermidis. The data set can be described thus: Antibacterial activity against methicillin-resistant Staphylococcus epidermidis MRSE17-4 measured by liquid dilution method. It is filed as functional.
The test system of data set [16] is Staphylococcus aureus. The data set can be described thus: Antibacterial activity against methicillin-sensitive Staphylococcus aureus MSSA17-2 measured by liquid dilution method. It is filed as functional.
The test system of data set [17] is Staphylococcus aureus. The data set can be described thus: Antibacterial activity against methicillin-sensitive Staphylococcus aureus MSSA17-3 measured by liquid dilution method. The class given is functional.
Data set [18] in a line: Plasma protein binding in CD-1 mouse plasma incubated for 4 hrs at 2 uM measured by LC/MS/MS analysis. The class given is ADME, cell-free. Particulars: read-out: PPB (converted).
Data set [19] concerns Staphylococcus epidermidis. The experiment in a line: Antibacterial activity against methicillin-sensitive Staphylococcus epidermidis MSSE17-2 measured by liquid dilution method. It is filed as functional.
Data set [20] concerns Staphylococcus aureus. The data set can be described thus: Antibacterial activity against methicillin-resistant Staphylococcus aureus ATCC 43300 measured by liquid dilution method. The class given is functional.
For data set [21], the system named is Staphylococcus aureus. The data set can be described thus: Antibacterial activity against vancomycin-intermediate Staphylococcus aureus ATCC 700788 measured by liquid dilution method. The class given is functional.
In data set [22] the test system is Staphylococcus epidermidis. The experiment in a line: Antibacterial activity against methicillin-resistant Staphylococcus epidermidis MRSE17-1 measured by liquid dilution method. The class given is functional.
The test system of data set [23] is Staphylococcus aureus. The experiment in a line: Antibacterial activity against Staphylococcus aureus ATCC 29213 measured by liquid dilution method. The class given is functional.
Data set [24] relates to Staphylococcus aureus. The experiment in a line: Antibacterial activity against methicillin-sensitive Staphylococcus aureus MSSA17-1 measured by liquid dilution method. It is filed as functional.
Data set [25] concerns Staphylococcus aureus. The data set can be described thus: Antibacterial activity against methicillin-resistant Staphylococcus aureus MRSA17-1 measured by liquid dilution method. The class given is functional.
Data set [26] relates to Staphylococcus aureus. The experiment in a line: Antibacterial activity against methicillin-resistant Staphylococcus aureus ATCC 33591 measured by liquid dilution method. It is filed as functional.
For data set [27], the system named is Enterococcus faecium. The experiment in a line: Antibacterial activity against Enterococcus faecium EFM17-1 measured by liquid dilution method. The class given is functional.
Another data set concerns Helicobacter pylori. The experiment in a line: Antibacterial activity against Helicobacter pylori measured by liquid dilution method. The class given is functional.
Data set [28] deals with Staphylococcus aureus. The data set can be described thus: Antibacterial activity against vancomycin-intermediate Staphylococcus aureus measured by liquid dilution method. It is filed as functional.
A short description of data set [29]: Stability in CD-1 mouse whole blood assessed as compound remaining at 2 uM and measured at 60 mins LC-MS/MS analysis. It is filed as ADME, tissue-based. Particulars: read-out: Stability.
A short description of data set [30]: Stability in CD-1 mouse whole blood assessed as compound remaining at 2 uM and measured at 120 mins LC-MS/MS analysis. It is filed as ADME, tissue-based. The settings on record: read-out: Stability.
A short description of data set [31]: Stability in CD-1 mouse whole blood assessed as compound remaining at 2 uM and measured at 10 mins LC-MS/MS analysis. It is filed as ADME, tissue-based. The settings on record: read-out: Stability.
Data set [32] in a line: Stability in CD-1 mouse whole blood assessed as compound remaining at 2 uM and measured at 30 mins LC-MS/MS analysis. Particulars: read-out: Stability. The class given is ADME, tissue-based.

A word on the MIC: it is the smallest concentration in the dilution series that meets the test's criterion for growth inhibition. Low readings indicate a more susceptible organism, high ones a less susceptible organism. Take `CNC1=NC(=O)[C@H]([C@H](C)c2c[nH]c3cccc(F)c23)O1`: the MIC in the data set with Staphylococcus aureus [1] is 1 µg/mL (≈ 3.63 µM); in data set [2], 1 µg/mL (≈ 3.63 µM); in data set [3] it was 0.5 µg/mL (≈ 1.82 µM); against Staphylococcus aureus [4], 0.5 µg/mL (≈ 1.82 µM); in data set [5] it was 1 µg/mL (≈ 3.63 µM); against Enterococcus faecalis [6], more than 128 µg/mL. The MIC in the data set on Staphylococcus aureus [7] is 1 µg/mL (≈ 3.63 µM); with Staphylococcus aureus [8], 0.5 µg/mL (≈ 1.82 µM); in [9], 0.5 µg/mL (≈ 1.82 µM); in the data set with Enterococcus faecium [10] it was more than 128 µg/mL; in data set [11], 1 µg/mL (≈ 3.63 µM); in the data set with Staphylococcus aureus [13], 0.5 µg/mL (≈ 1.82 µM). In addition, the MIC against Enterococcus faecalis [14] was more than 128 µg/mL; in [15] it was 1 µg/mL (≈ 3.63 µM); with Staphylococcus aureus [16], 1 µg/mL (≈ 3.63 µM); against Staphylococcus aureus [17], 0.5 µg/mL (≈ 1.82 µM); in [19], 1 µg/mL (≈ 3.63 µM); against Staphylococcus aureus [20], 1 µg/mL (≈ 3.63 µM). The MIC in the data set on Staphylococcus aureus [21] amounted to 0.5 µg/mL (≈ 1.82 µM); in [22], 2 µg/mL (≈ 7.27 µM); against Staphylococcus aureus [23] it was 1 µg/mL (≈ 3.63 µM); with Staphylococcus aureus [24], 1 µg/mL (≈ 3.63 µM); in the data set with Staphylococcus aureus [25], 0.5 µg/mL (≈ 1.82 µM); in the data set on Staphylococcus aureus [26], 1 µg/mL (≈ 3.63 µM). Further, in the data set with Enterococcus faecium [27], the MIC is more than 128 µg/mL. In addition, the fraction unbound at 4 h, 2 µM in data set [12] and in data set [18] was 0.2 in each case.

With `CNC1=NC(=O)[C@H]([C@H](C)c2c[nH]c3cccc(Cl)c23)O1`, the MIC in the data set on Staphylococcus aureus [1] is 1 µg/mL (≈ 3.43 µM); in data set [2], 0.5 µg/mL (≈ 1.71 µM); in data set [3], 0.25 µg/mL (≈ 0.857 µM); against Staphylococcus aureus [4], 0.5 µg/mL (≈ 1.71 µM); in data set [5], 0.5 µg/mL (≈ 1.71 µM); against Enterococcus faecalis [6] it was more than 128 µg/mL. The MIC against Staphylococcus aureus [7] is 1 µg/mL (≈ 3.43 µM); in the data set on Staphylococcus aureus [8], 1 µg/mL (≈ 3.43 µM); in [9], 0.25 µg/mL (≈ 0.857 µM); with Enterococcus faecium [10], more than 128 µg/mL; in data set [11], 1 µg/mL (≈ 3.43 µM); against Staphylococcus aureus [13], 0.5 µg/mL (≈ 1.71 µM). Besides, the MIC in the data set on Enterococcus faecalis [14] is more than 128 µg/mL; in data set [15], 1 µg/mL (≈ 3.43 µM); in the data set with Staphylococcus aureus [16], 1 µg/mL (≈ 3.43 µM); in the data set on Staphylococcus aureus [17], 0.5 µg/mL (≈ 1.71 µM); in data set [19], 0.5 µg/mL (≈ 1.71 µM); against Staphylococcus aureus [20], 1 µg/mL (≈ 3.43 µM). In addition, the MIC with Staphylococcus aureus [21] turned out to be 1 µg/mL (≈ 3.43 µM); in [22] it was 1 µg/mL (≈ 3.43 µM); in the data set with Staphylococcus aureus [23], 2 µg/mL (≈ 6.86 µM); against Staphylococcus aureus [24] it was 1 µg/mL (≈ 3.43 µM); with Staphylococcus aureus [25], 1 µg/mL (≈ 3.43 µM); against Staphylococcus aureus [26], 2 µg/mL (≈ 6.86 µM). The MIC in the data set on Enterococcus faecium [27] was more than 128 µg/mL. In addition, the fraction unbound at 4 h, 2 µM in [12] and in data set [18] was 0.134 throughout.

For orientation: MIC90 means an inhibitory concentration at the 90% level, which refers to growth in some studies and to a panel of isolates in others. A high value points to weaker potency. Consider `CNC1=NC(=O)[C@H]([C@H](C)c2c[nH]c3ccccc23)O1` [INDOMYCIN], for which the MIC against Staphylococcus aureus [1] is 0.5 µg/mL (≈ 1.94 µM); in [2], 0.5 µg/mL (≈ 1.94 µM); in data set [3], 0.25 µg/mL (≈ 0.972 µM); with Staphylococcus aureus [4], 0.25 µg/mL (≈ 0.972 µM); in data set [5] it was 1 µg/mL (≈ 3.89 µM); with Enterococcus faecalis [6], more than 128 µg/mL. The MIC against Staphylococcus aureus [7] is 0.5 µg/mL (≈ 1.94 µM); against Staphylococcus aureus [8], 0.25 µg/mL (≈ 0.972 µM); in [9], 0.25 µg/mL (≈ 0.972 µM); in the data set with Enterococcus faecium [10] it was more than 128 µg/mL; in data set [11], 1 µg/mL (≈ 3.89 µM); with Staphylococcus aureus [13] it was 0.125 µg/mL (≈ 0.486 µM). Also, the MIC against Enterococcus faecalis [14] was more than 128 µg/mL; in data set [15] it was 1 µg/mL (≈ 3.89 µM); in the data set with Staphylococcus aureus [16] it was 0.5 µg/mL (≈ 1.94 µM); in the data set on Staphylococcus aureus [17], 0.25 µg/mL (≈ 0.972 µM); in data set [19] it was 0.5 µg/mL (≈ 1.94 µM); with Staphylococcus aureus [20], 0.25 µg/mL (≈ 0.972 µM). Besides, the minimum inhibitory concentration (MIC) was 0.125 µg/mL (≈ 0.486 µM) against Staphylococcus aureus [28]; 0.25 µg/mL (≈ 0.972 µM) against Staphylococcus aureus [21]; 1 µg/mL (≈ 3.89 µM) in data set [22]; 0.5 µg/mL (≈ 1.94 µM) in the data set with Staphylococcus aureus [23]; 0.5 µg/mL (≈ 1.94 µM) against Staphylococcus aureus [24]; 0.5 µg/mL (≈ 1.94 µM) in the data set on Staphylococcus aureus [25]. Also, the MIC in the data set on Staphylococcus aureus [26] is 1 µg/mL (≈ 3.89 µM); against Enterococcus faecium [27], more than 128 µg/mL. The same compound gave an MIC90 with Helicobacter pylori of 0.031 µg/mL (≈ 0.12 µM). Further, the fraction unbound at 4 h, 2 µM in data set [12] and in data set [18] was 0.441 each time.

`CC(C)[N+](C)(CCOC(=O)C1c2ccccc2Oc2ccccc21)C(C)C` [PROPANTHELINE BROMIDE]: in data set [29], the remaining at 1 h, 2 µM came out at 64.7%. For the same compound, in data set [30], the remaining at 2 h, 2 µM was found to be 38.3%. The remaining at 10 min, 2 µM in data set [31] is 93.5%. The remaining at 0.5 h, 2 µM in data set [32] came to 82.9%.

As for `CC(=O)CC(c1ccccc1)c1c(O)c2ccccc2oc1=O` (centres undefined) [WARFARIN], the fraction unbound at 4 h, 2 µM in data set [12] and in [18] was 0.098 throughout.
